Test results: US12570957B2, “Isolated naive pluripotent stem cells and methods of generating same” (Yeda Research and Development Co. Ltd., priority 2013, dated 2026)

Assays:
naive hESCs/hiPSCs = assay: Substitution of p38 inhibitor in WIS-NHSM, OCT4-GFP expression; format: cell-based, human; conditions: used instead of SB203580 in WIS-NHSM
Mbd3 binding to Chd4 = molecular target: T1, Mbd3 binding to Chd4 (Homo sapiens, UniProt O95983); assay: Co-immunoprecipitation of Flag-Mbd3 interacting proteins in 293T cells; format: cell-based; conditions: Flag-Mbd3 IP
T1 construct: expressed in transfected cells; host or cells: 293T cells
T1 sequence (O95983 1-291): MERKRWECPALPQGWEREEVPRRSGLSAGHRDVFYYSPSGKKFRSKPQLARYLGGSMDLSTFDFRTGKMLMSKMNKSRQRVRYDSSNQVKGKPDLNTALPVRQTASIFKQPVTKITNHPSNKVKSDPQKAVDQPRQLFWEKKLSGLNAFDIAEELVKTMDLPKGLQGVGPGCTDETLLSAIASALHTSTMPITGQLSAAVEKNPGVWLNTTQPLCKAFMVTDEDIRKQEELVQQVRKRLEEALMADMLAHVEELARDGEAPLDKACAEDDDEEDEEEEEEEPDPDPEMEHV
Source text: 293T cells were transfected with both with Flag-Mbd3 (WT) and P66a-CC (SEQ ID NO:71; GenBank Accession NO. NM_017660.3) or a control vector (mCherry), Mbd3 15 interacting proteins were pulled down by immunoprecipitation (IP) using Flag-magnetic beads.
The present inventors overexpressed MBD3-WT (SEQ ID NO: 112) and the HA-tagged p66u-CC in 293T cells, and further show in a co-immunoprecipitation for anti-Mbd3 pulldown, that the presence of p66u inhibits MBD3 binding and recruitment to CHD4 (FIG. 93).

naive cells = assay: Pluripotency (Oct4-GFP) after passaging with DNA methylation or EED inhibitors; format: cell-based, human and mouse; conditions: Oct4-GFP reporter
primed hESCs and hiPSCs = assay: Single-cell cloning efficiency, primed cells; format: cell-based, human; conditions: in the presence of ROCK inhibitor
Source text: (§1) FIGS. 74A-74D depict enhanced growth rate and single cell cloning efficiency of human naive pluripotent stem cells. FIG. 74A—Population doubling time of various mouse and human pluripotent stem cell lines. After plating each cell lines in replicates, cells were harvested at days 2,4 and 6 and there growth was normalized by counting cell number at each stage and calculating growth rate relative to the number of cells harvested and counted at day 2 (rather than number of plated cells to account for variability in survival after plating). Error bars represent s.d., and P values represent t-test of average from primed hESC/hiPSC lines to average of naive hESC/hiPSC lines. FIG. 74B—Single-cell cloning efficiency of different pluripotent stem cell lines as determined by the number of wells containing NANOG+ colonies 6 days after plating (with or without ROCK inhibitor as indicated in the figure). * indicates student's t-test P value <0.01 between the average of the compared groups. Error bars indicate s.d. […] Single-cell cloning efficiency of different pluripotent stem cell lines as determined by the number of wells containing Nanog+ colonies 6 days after plating (without using ROCK inhibitor as indicated in the figure). * indicates student's t-test P value <0.01 between the average of the compared groups. […]

naive hPSCs = assay: Single-cell cloning efficiency, naive cells; format: cell-based, human; conditions: in the presence of ROCK inhibitor
Source text: as §1

PKCα = PKCα (Homo sapiens, UniProt P17252); conditions: read-out: IC50 for PKCu; cited from earlier work
PKCγ = PKCγ (Homo sapiens, UniProt P05129); conditions: read-out: IC50 for PKCy; cited from earlier work
MBD3 = assay: Western blot for MBD3 protein expression in V6.5 mouse ES cells after 4 days treatment; format: cell-based; conditions: 2i/LIF plus agent at 5 micromolar
Source text: FIGS. 1O1A-101B are Western blot analyses showing expression of MBD3 (FIG. 101B) and of HSP90 (FIG. 101A) in v6.5 mouse ES cells after different treatments. V6.5 mouse ES cells were expanded for 4 days in the indicated conditions and subjected to Western blot analysis for MBD3 protein expression. Following are the abbreviations and concentrations of the indicated factors and agents. PBS=phosphate buffered saline; “LIF”=leukemia inhibitory factor, provided at a concentration of 20 nanograms/milliliter (ng/ml); KSR=knockout serum replacement; “2i/LIF”=small-molecule inhibitors CHIR99021 (CH, 3 M—Axon Medchem) and PD0325901 (PD, 1 M—TOCRIS), with 20 ng/ml LIF; “DMSO”=Dimethyl sulfoxide at a concentration of 0.1%; TGFRi (inhibitor of transforming growth factor receptor; SB431542 at 5 micromolar); PKC-i (inhibitor of protein kinase C; Go6983 at 5 micromolar).
V6.5 mouse ES cells were expanded for 4 days in various conditions in order to identify combination of factors which result in reduced MBD3 protein levels.

PKCζ = molecular target: T2, PKCζ (Homo sapiens, UniProt Q05513); conditions: read-out: IC50 for PKC; cited from earlier work
T2 sequence (Q05513 1-592): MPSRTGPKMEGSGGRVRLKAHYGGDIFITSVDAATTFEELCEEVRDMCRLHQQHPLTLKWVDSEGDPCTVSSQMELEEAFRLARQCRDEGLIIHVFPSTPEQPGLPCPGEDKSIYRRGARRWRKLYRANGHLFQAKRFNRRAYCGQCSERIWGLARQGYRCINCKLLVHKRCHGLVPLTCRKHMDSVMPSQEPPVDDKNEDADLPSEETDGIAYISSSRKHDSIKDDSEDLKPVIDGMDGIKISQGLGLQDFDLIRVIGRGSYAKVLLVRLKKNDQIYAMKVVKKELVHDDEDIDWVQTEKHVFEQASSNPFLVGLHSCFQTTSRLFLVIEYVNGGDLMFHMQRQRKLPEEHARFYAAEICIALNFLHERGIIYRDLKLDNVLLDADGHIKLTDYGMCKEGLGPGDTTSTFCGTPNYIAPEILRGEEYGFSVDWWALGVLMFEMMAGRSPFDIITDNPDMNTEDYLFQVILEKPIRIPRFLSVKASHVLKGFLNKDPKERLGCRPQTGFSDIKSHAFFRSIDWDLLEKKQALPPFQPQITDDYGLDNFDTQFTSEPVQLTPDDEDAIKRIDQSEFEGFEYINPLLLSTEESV

PKCδ = PKCδ (Homo sapiens, UniProt Q05655); conditions: read-out: IC50 for PKC6; cited from earlier work
PKCβ = PKCβ (Homo sapiens, UniProt P05771); conditions: read-out: IC50 for PKC0; cited from earlier work
PKCμ = molecular target: T3, PKCμ (Homo sapiens, UniProt Q15139); conditions: read-out: IC50 for PKCp; cited from earlier work
T3 sequence (Q15139 1-912): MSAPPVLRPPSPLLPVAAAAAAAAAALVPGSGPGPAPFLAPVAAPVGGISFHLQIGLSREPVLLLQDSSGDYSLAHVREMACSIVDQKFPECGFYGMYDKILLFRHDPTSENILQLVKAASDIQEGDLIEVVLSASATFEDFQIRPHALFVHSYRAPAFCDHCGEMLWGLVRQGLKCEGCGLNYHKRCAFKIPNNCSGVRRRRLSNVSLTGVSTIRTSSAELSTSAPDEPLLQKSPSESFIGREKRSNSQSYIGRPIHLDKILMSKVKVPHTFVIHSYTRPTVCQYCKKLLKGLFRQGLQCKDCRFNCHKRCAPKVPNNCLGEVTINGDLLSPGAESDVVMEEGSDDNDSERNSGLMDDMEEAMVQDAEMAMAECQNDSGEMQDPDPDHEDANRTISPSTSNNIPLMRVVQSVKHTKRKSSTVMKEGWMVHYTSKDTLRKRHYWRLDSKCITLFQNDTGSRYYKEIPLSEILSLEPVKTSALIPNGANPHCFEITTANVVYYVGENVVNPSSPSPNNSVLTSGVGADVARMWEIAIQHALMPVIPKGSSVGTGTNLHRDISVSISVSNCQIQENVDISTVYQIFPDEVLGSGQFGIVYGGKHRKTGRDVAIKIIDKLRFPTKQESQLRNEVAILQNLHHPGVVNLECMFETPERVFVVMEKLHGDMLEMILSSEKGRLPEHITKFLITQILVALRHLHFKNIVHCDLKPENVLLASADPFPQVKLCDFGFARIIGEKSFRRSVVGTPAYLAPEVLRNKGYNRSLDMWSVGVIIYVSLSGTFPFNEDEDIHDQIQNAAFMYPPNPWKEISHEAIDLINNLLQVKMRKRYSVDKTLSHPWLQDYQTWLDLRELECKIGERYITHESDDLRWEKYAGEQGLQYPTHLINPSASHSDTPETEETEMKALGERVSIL

Chain of PKCβ (P05771 whole entry, species assumed): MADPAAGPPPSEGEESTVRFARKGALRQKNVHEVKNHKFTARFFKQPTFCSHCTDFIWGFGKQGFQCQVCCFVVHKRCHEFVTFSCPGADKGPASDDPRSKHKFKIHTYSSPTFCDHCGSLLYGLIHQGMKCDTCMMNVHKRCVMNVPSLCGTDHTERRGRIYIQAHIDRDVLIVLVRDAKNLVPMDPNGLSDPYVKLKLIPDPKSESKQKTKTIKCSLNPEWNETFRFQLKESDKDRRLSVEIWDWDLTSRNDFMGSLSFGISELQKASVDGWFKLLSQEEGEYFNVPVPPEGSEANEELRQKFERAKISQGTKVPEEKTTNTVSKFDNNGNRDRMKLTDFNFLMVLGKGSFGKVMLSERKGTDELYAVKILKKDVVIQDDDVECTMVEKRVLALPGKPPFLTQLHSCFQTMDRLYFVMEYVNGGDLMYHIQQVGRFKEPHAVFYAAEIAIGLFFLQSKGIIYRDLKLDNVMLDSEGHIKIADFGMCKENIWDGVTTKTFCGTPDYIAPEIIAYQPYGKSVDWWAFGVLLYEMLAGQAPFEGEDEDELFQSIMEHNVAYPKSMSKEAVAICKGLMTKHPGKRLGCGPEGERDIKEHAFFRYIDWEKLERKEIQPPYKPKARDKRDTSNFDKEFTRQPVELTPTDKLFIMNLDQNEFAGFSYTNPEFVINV
Chain of PKCδ (Q05655 whole entry): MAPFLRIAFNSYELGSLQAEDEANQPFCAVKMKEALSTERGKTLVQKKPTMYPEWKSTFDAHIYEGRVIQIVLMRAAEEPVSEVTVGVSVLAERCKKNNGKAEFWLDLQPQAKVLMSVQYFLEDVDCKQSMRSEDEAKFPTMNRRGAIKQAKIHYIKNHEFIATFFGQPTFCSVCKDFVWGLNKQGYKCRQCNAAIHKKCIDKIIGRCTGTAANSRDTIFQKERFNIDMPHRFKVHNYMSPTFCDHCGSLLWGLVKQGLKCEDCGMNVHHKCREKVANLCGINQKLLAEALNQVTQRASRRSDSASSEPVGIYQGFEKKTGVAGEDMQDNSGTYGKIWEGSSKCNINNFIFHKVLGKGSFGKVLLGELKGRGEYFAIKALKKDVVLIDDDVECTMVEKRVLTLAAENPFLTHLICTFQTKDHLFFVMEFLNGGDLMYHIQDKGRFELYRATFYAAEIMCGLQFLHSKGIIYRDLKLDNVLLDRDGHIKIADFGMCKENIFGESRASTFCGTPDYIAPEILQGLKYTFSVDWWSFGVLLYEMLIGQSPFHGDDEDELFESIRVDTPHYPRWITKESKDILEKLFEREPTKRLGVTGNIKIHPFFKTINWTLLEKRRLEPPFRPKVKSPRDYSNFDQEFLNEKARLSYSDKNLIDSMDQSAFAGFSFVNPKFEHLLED

Molecule: Cc1ccc(-n2nc(C(C)(C)C)cc2NC(=O)Nc2ccc(OCCN3CCOCC3)c3ccccc23)cc1 [BIRB796]
- change in OCT4-GFP expression (naive hESCs/hiPSCs): without any change

Molecule: P66a-CC: P66 alpha coiled-coil domain, SEQ ID NO:114, expressed by transfection (PEERERMIKQLKEELRLEEAKLVLLKKLRQSQIQKEATAQK; (1)..(41) P66 alpha coiled-coil domain; listed as Homo sapiens) [Condition P66a-CC]
- Chd4 interaction with Mbd3 (Mbd3 binding to Chd4): specific loss of Chd4 interaction with Mbd3

Molecule: Nc1nccc2c1ncn2C1C=C(CO)C(O)C1O (stereo not shown) [DzNEP]
- pluripotency after passaging in presence of inhibitor (naive cells): retain their pluripotency

Molecule: C[C@@H](N)[C@H]1CC[C@H](C(=O)Nc2ccncc2)CC1 [ROCK inhibitor, Y-27632]
- single cell cloning efficiency (primed hESCs and hiPSCs): up to 22%
- single cell cloning efficiency (naive hPSCs): up to 88%

Molecule: Oc1ccc(-c2nc(-c3ccncc3)c(-c3ccc(F)cc3)[nH]2)cc1 [SB202190]
- change in OCT4-GFP expression (naive hESCs/hiPSCs): without any change

Molecule: Nc1ncn([C@H]2C[C@H](O)[C@@H](CO)O2)c(=O)n1 [Condition 5d-AZA]
- pluripotency after passaging in presence of inhibitor (naive cells): retain their pluripotency

Molecule: COc1ccc2c(c1)c(C1=C(c3c[nH]c4ccccc34)C(=O)NC1=O)cn2CCCN(C)C [Go6983]
- IC50 (PKCα): 7 nM
- IC50 (PKCγ): 6 nM
- MBD3 protein levels (MBD3): significant depletion
- MBD3 protein levels (MBD3; listed as PKC inhibitor): significant reduction
- IC50 (PKCζ): 60 nM
- IC50 (PKCδ): 10 nM
- IC50 (PKCβ): 7 nM
- IC50 (PKCμ): 20000 nM

Molecule: NC(=O)c1ccc(-c2nc(-c3ccc4c(c3)OCO4)c(-c3ccccn3)[nH]2)cc1 [SB431542]
- MBD3 protein levels (MBD3): did not affect
